The source of these data is patent US9908872B2, “Methods to treat lymphoplasmacytic lymphoma” (Dana-Farber Cancer Institute, Inc., priority 2013, dated 2018).

Values joined by “and” are separate entries in the source; they are usually repeats but may differ in a detail not shown here. Equal entries are not always repeated.

For assay [1], the system named is RPCIWM-1. In words: CellTiter-Glo cell viability assay. It counts as cell-based. As to conditions: 72 hours, cell survival. As for the experimental part: (§1) CellTiter-Glo® Luminescent cell viability assay (Promega) was used to assess cell survival following treatment with the compounds described. Cells were seeded into 384 well plates with the EL406 Combination Washer Dispenser (BioTek Instruments, Inc.), and the compounds were injected into the cells culture media with the JANUS Automated Workstation (PerkinElmer Inc.). Cells were treated with a series diluted inhibitors (20˜0.04 μM) for 72 hours at 37° C. Luminescent measurement is performed using the 2104 Envision® Multilabel Reader (PerkinElmer Inc.).

Assay [2] concerns MWCL-1. In words: CellTiter-Glo cell viability assay. It counts as cell-based. The settings on record: 72 hours, cell survival. As for the experimental part:
as §1
(In general: In ATP-based viability assays light output follows the ATP content of the culture.)

Assay [3] deals with BCWM.1. In words: CellTiter-Glo cell viability assay. It counts as cell-based. The settings on record: 72 hours, cell survival. As for the experimental part: as §1
Assay [4] concerns Ramos. In words: CellTiter-Glo cell viability assay. It counts as cell-based. The settings on record: 72 hours, cell survival. As for the experimental part:
as §1

Assay [5] concerns OCI-Ly3. In words: CellTiter-Glo cell viability assay. The settings on record: Homo sapiens, 72 hours, cell survival. The class given is cell-based. The protocol:
as §1

Assay [6] deals with AMPKa1, AMPKa2. In words: KiNativ profiling, A375 cells. The class given is binding, Homo sapiens. The settings on record: 1 μM, labeling site Lys1.
For assay [7], the system named is MAP3K2, MAP3K3. In words: KiNativ profiling, A375 cells. The class given is binding, Homo sapiens. The settings on record: 1 μM, labeling site Lys2.
Assay [8] has as its system MAP2K1, MAP2K2. In words: KiNativ profiling, A375 cells. It counts as binding, Homo sapiens. The settings on record: 1 μM, labeling site Lys2.
Assay [9] relates to ROCK1, ROCK2. In words: KiNativ profiling, A375 cells. It counts as binding, Homo sapiens. The settings on record: 1 μM, labeling site Lys2.
The subject of assay [10] is PKD1, PKD2. In words: KiNativ profiling, A375 cells. As to conditions: 1 μM, labeling site Lys2. It counts as binding, Homo sapiens.
The subject of assay [11] is MST4, YSK1. In words: KiNativ profiling, A375 cells. It counts as binding, Homo sapiens. As to conditions: 1 μM, labeling site Lys2.
Assay [12] has as its system FYN, SRC, YES. In words: KiNativ profiling, A375 cells. It counts as binding, Homo sapiens. As to conditions: 1 μM, labeling site Activation Loop.
Assay [13] deals with ZAK. It counts as binding, Homo sapiens.
Assay [14] deals with ZC1/HGK, ZC2/TNIK, ZC3/MINK. In words: KiNativ profiling, A375 cells. The class given is binding, Homo sapiens. The settings on record: 1 μM, labeling site Lys2.
Assay [15] has as its system NEK6, NEK7. In words: KiNativ profiling, A375 cells. It counts as binding, Homo sapiens. The settings on record: 1 μM, labeling site Lys2.
The subject of assay [16] is MARK1, MARK2. In words: KiNativ profiling, A375 cells. The class given is binding, Homo sapiens. The settings on record: 1 μM, labeling site Lys1.
In assay [17] the test system is TAO1, TAO3. In words: KiNativ profiling, A375 cells. The class given is binding, Homo sapiens. The settings on record: 1 μM, labeling site Lys2.
The subject of assay [18] is CDK11, CDK8. In words: KiNativ profiling, A375 cells. It counts as binding, Homo sapiens. As to conditions: 1 μM, labeling site Lys2.
Assay [19] deals with CaMK2a, CaMK2b, CaMK2d, CaMK2g. In words: KiNativ profiling, A375 cells. The class given is binding, Homo sapiens. As to conditions: 1 μM, labeling site Lys2.
Assay [20] relates to p38d, p38g. In words: KiNativ profiling, A375 cells. The settings on record: 1 μM, labeling site Lys2. The class given is binding, Homo sapiens.
For assay [21], the system named is LYN. It counts as binding, Homo sapiens.
Assay [22] concerns IKKe, TBK1. In words: KiNativ profiling, A375 cells. The class given is binding, Homo sapiens. As to conditions: 1 μM, labeling site Lys2.
Assay [23] concerns ABL, ARG. In words: KiNativ profiling, A375 cells. It counts as binding, Homo sapiens. The settings on record: 1 μM, labeling site Activation Loop.
The subject of assay [24] is MARK2, MARK3. In words: KiNativ profiling, A375 cells. The class given is binding, Homo sapiens. The settings on record: 1 μM, labeling site Lys2.
In assay [25] the test system is PITSLRE. In words: KiNativ profiling, A375 cells. The class given is binding, Homo sapiens. The settings on record: 1 μM, labeling site Lys2.
Assay [26] deals with JNK1, JNK2, JNK3. In words: KiNativ profiling, A375 cells. It counts as binding, Homo sapiens. The settings on record: 1 μM, labeling site Lys2.
The test system of assay [27] is OCI-Ly19. In words: CellTiter-Glo cell viability assay. The class given is cell-based. The settings on record: 72 hours, cell survival. As for the experimental part: as §1

What is called EC50 is the concentration giving half of the maximal effect.

Regarding `CCN1CCN(Cc2ccc(NC(=O)c3ccc(Cl)c(NC(=O)c4cncc(-c5cccs5)c4)c3)cc2C(F)(F)F)CC1` [I-2, N-(2-chloro-5-((4-((4-ethylpiperazin-1-yl)methyl)-3-(trifluoromethyl)phenyl)carbamoyl)phenyl)-5-(thiophen-2-yl)nicotinamide], the EC50 in assay [1] came to 110 nM; in [2], 16 nM; in assay [3] (BCWM1), 12 nM; in assay [4] (Homo sapiens, Ramos), 60 nM; in assay [5], 161 nM.
On to `Cc1ccc(C(=O)Nc2cccc(C(C)(C)C#N)c2)cc1NC(=O)c1cncc(-c2cccs2)c1` [I-6, N-(5-((3-(2-cyanopropan-2-yl)phenyl)carbamoyl)-2-methylphenyl)-5-(thiophen-2-yl)nicotinamide], for which the “KiNativ inhibition of AMPKa1, AMPKa2” value in assay [6] stood at 15.3%. Also, in assay [7], the “KiNativ inhibition of MAP3K2, MAP3K3” value is -15.3%. In addition, the “KiNativ inhibition of MAP2K1, MAP2K2” value in assay [8] was 4.1%. In [9], the “KiNativ inhibition of ROCK1, ROCK2” value amounted to 12.7%. Besides, the “KiNativ inhibition of PKD1, PKD2” value in [10] is -2.5%. Besides, the “KiNativ inhibition of MST4, YSK1” value in assay [11] is on record as 22%. Also, the “KiNativ inhibition of FYN, SRC, YES” value in [12] worked out at 55.7%. In addition, in assay [13], the “KiNativ inhibition of ZAK” value is on record as over 95%. Moreover, in [14], the “KiNativ inhibition of ZC1/HGK, ZC2/TNIK, ZC3/MINK” value is 27%. Besides, the “KiNativ inhibition of NEK6, NEK7” value in assay [15] is reported as -3.7%. For the same molecule, the “KiNativ inhibition of MARK1, MARK2” value in assay [16] is given as -4.9%. Also, the “KiNativ inhibition of TAO1, TAO3” value in [17] stood at 11.9%. Also, the “KiNativ inhibition of CDK11, CDK8” value in [18] worked out at 20.7%. Further, the “KiNativ inhibition of CaMK2a, CaMK2b, CaMK2d, CaMK2g” value in assay [19] stood at 0.7%. Also, in assay [20], the “KiNativ inhibition of p38d, p38g” value came out at 17.8%. For the same molecule, in assay [21], the “KiNativ inhibition of LYN” value was found to be 87.6%. Further, the “KiNativ inhibition of IKKe, TBK1” value in [22] is 24.8%. Also, in assay [23], the “KiNativ inhibition of ABL, ARG” value was over 90%. In addition, in assay [24], the “KiNativ inhibition of MARK2, MARK3” value is 17.2%. In addition, the “KiNativ inhibition of PITSLRE” value in assay [25] came out at 1.9%. Moreover, the “KiNativ inhibition of JNK1, JNK2, JNK3” value in [26] came out at 11.7%.
On to `CCN1CCN(Cc2ccc(NC(=O)c3ccc(C)c(NC(=O)c4cncc(-c5cnoc5)c4)c3)cc2C(F)(F)F)CC1` [I-8], for which the EC50 in assay [27] was determined as 56 nM; in [4] it was 329 nM.
For the molecule `CCN1CCN(Cc2ccc(NC(=O)c3ccc(C)c(NC(=O)c4cncc(-c5cnn(C)c5)c4)c3)cc2C(F)(F)F)CC1` [I-9], the EC50 in [27] was 2650 nM; in assay [2] it was 294 nM and 281 nM; in assay [3] it was 542 nM and 305 nM; in assay [4], 7470 nM.
